# From ChEMBL document CHEMBL3797052 (Eur J Med Chem, 2016)
# System: not listed separately
# Test: Antiproliferative activity against human UACC257 cells assessed as cell growth at 10^-5 M after 48 hrs by sulforhodamine B assay
# Format: functional
# Conditions: UACC-257, 48 h, read-out: Activity
row,Structure (SMILES),growth at 10 µM [%]
1,CNC(=O)c1cc(Oc2ccc3nc(NC(=O)c4cc(C(F)(F)F)cc(C(F)(F)F)c4)sc3c2)ccn1,-10

# System: not listed separately
# Test: Antiproliferative activity against human IGROV1 cells assessed as cell growth at 10^-5 M after 48 hrs by sulforhodamine B assay
# Format: functional
# Conditions: IGROV-1, 48 h, read-out: Activity
row,Structure (SMILES),growth at 10 µM [%]
1,CNC(=O)c1cc(Oc2ccc3nc(NC(=O)c4cc(C(F)(F)F)cc(C(F)(F)F)c4)sc3c2)ccn1,27

# System: not listed separately
# Test: Antiproliferative activity against human OVCAR3 cells assessed as cell growth at 10^-5 M after 48 hrs by sulforhodamine B assay
# Format: functional
# Conditions: OVCAR-3, 48 h, read-out: Activity
row,Structure (SMILES),growth at 10 µM [%]
1,CNC(=O)c1cc(Oc2ccc3nc(NC(=O)c4cc(C(F)(F)F)cc(C(F)(F)F)c4)sc3c2)ccn1,-19

# System: not listed separately
# Test: Antiproliferative activity against human OVCAR5 cells assessed as cell growth at 10^-5 M after 48 hrs by sulforhodamine B assay
# Format: functional
# Conditions: OVCAR-5, 48 h, read-out: Activity
row,Structure (SMILES),growth at 10 µM [%]
1,CNC(=O)c1cc(Oc2ccc3nc(NC(=O)c4cc(C(F)(F)F)cc(C(F)(F)F)c4)sc3c2)ccn1,32

# System: not listed separately
# Test: Antiproliferative activity against human NCI-ADR-RES cells assessed as cell growth at 10^-5 M after 48 hrs by sulforhodamine B assay
# Format: functional
# Conditions: read-out: Activity
row,Structure (SMILES),growth at 10 µM [%]
1,CNC(=O)c1cc(Oc2ccc3nc(NC(=O)c4cc(C(F)(F)F)cc(C(F)(F)F)c4)sc3c2)ccn1,15

# System: not listed separately
# Test: Antiproliferative activity against human SKOV3 cells assessed as cell growth at 10^-5 M after 48 hrs by sulforhodamine B assay
# Format: functional
# Conditions: SK-OV-3, 48 h, read-out: Activity
row,Structure (SMILES),growth at 10 µM [%]
1,CNC(=O)c1cc(Oc2ccc3nc(NC(=O)c4cc(C(F)(F)F)cc(C(F)(F)F)c4)sc3c2)ccn1,-10

# System: 786-0
# Test: Antiproliferative activity against human 786-0 cells assessed as cell growth at 10^-5 M after 48 hrs by sulforhodamine B assay
# Format: functional
# Conditions: 786-0, 48 h, read-out: Activity
row,Structure (SMILES),growth at 10 µM [%]
1,CNC(=O)c1cc(Oc2ccc3nc(NC(=O)c4cc(C(F)(F)F)cc(C(F)(F)F)c4)sc3c2)ccn1,-9

# System: ACHN
# Test: Antiproliferative activity against human ACHN cells assessed as cell growth at 10^-5 M after 48 hrs by sulforhodamine B assay
# Format: functional
# Conditions: read-out: Activity
row,Structure (SMILES),growth at 10 µM [%]
1,CNC(=O)c1cc(Oc2ccc3nc(NC(=O)c4cc(C(F)(F)F)cc(C(F)(F)F)c4)sc3c2)ccn1,6

# System: not listed separately
# Test: Antiproliferative activity against human RXF393 cells assessed as cell growth at 10^-5 M after 48 hrs by sulforhodamine B assay
# Format: functional
# Conditions: RXF 393, 48 h, read-out: Activity
row,Structure (SMILES),growth at 10 µM [%]
1,CNC(=O)c1cc(Oc2ccc3nc(NC(=O)c4cc(C(F)(F)F)cc(C(F)(F)F)c4)sc3c2)ccn1,-8

# System: SN12C
# Test: Antiproliferative activity against human SN12C cells assessed as cell growth at 10^-5 M after 48 hrs by sulforhodamine B assay
# Format: functional
# Conditions: read-out: Activity
row,Structure (SMILES),growth at 10 µM [%]
1,CNC(=O)c1cc(Oc2ccc3nc(NC(=O)c4cc(C(F)(F)F)cc(C(F)(F)F)c4)sc3c2)ccn1,6

# System: not listed separately
# Test: Antiproliferative activity against human TK10 cells assessed as cell growth at 10^-5 M after 48 hrs by sulforhodamine B assay
# Format: functional
# Conditions: TK-10, 48 h, read-out: Activity
row,Structure (SMILES),growth at 10 µM [%]
1,CNC(=O)c1cc(Oc2ccc3nc(NC(=O)c4cc(C(F)(F)F)cc(C(F)(F)F)c4)sc3c2)ccn1,8

# System: not listed separately
# Test: Antiproliferative activity against human PC3 cells assessed as cell growth at 10^-5 M after 48 hrs by sulforhodamine B assay
# Format: functional
# Conditions: PC-3, 48 h, read-out: Activity
row,Structure (SMILES),growth at 10 µM [%]
1,CNC(=O)c1cc(Oc2ccc3nc(NC(=O)c4cc(C(F)(F)F)cc(C(F)(F)F)c4)sc3c2)ccn1,5

# System: MCF7
# Test: Antiproliferative activity against human MCF7 cells assessed as cell growth at 10^-5 M after 48 hrs by sulforhodamine B assay
# Format: functional
# Conditions: MCF7, 48 h, read-out: Activity
row,Structure (SMILES),growth at 10 µM [%]
1,CNC(=O)c1cc(Oc2ccc3nc(NC(=O)c4cc(C(F)(F)F)cc(C(F)(F)F)c4)sc3c2)ccn1,17

# System: MDA-MB-231
# Test: Antiproliferative activity against human MDA-MB-231 cells assessed as cell growth at 10^-5 M after 48 hrs by sulforhodamine B assay
# Format: functional
# Conditions: MDA-MB-231, 48 h, read-out: Activity
row,Structure (SMILES),growth at 10 µM [%]
1,CNC(=O)c1cc(Oc2ccc3nc(NC(=O)c4cc(C(F)(F)F)cc(C(F)(F)F)c4)sc3c2)ccn1,-25

# System: CCRF-CEM
# Test: Antiproliferative activity against human CCRF-CEM cells assessed as growth inhibition after 48 hrs by sulforhodamine B assay
# Format: functional
# Conditions: not given
Structure (SMILES),GI50 [µM],TGI [µM]
CNC(=O)c1cc(Oc2ccc3nc(NC(=O)c4cc(C(F)(F)F)cc(C(F)(F)F)c4)sc3c2)ccn1,3.47,> 100

# Same assay, conditions: read-out: LC50 (the source's name)
row,Structure (SMILES),CC50 [µM]
1,CNC(=O)c1cc(Oc2ccc3nc(NC(=O)c4cc(C(F)(F)F)cc(C(F)(F)F)c4)sc3c2)ccn1,> 100

# Molecular target: RAF proto-oncogene serine/threonine-protein kinase (Homo sapiens, UniProt P04049)
# Sequence (P04049 whole entry): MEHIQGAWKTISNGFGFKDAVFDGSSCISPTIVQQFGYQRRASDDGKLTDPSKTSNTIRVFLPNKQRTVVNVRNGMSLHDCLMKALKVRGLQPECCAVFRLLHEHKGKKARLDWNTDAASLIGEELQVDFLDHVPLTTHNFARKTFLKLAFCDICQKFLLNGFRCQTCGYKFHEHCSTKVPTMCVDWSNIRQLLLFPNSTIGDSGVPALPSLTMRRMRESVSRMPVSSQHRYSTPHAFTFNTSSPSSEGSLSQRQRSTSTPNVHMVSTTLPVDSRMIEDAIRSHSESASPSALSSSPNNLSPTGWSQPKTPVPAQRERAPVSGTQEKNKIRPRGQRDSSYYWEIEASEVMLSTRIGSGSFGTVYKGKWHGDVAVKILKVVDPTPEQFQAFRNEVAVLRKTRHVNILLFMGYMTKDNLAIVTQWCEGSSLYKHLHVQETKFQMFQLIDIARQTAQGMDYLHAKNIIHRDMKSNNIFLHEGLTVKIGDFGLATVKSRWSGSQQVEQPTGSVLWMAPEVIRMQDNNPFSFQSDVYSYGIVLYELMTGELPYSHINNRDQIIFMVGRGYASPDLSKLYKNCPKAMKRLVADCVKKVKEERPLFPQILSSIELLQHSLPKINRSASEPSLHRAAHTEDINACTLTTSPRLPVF
# Test: Inhibition of human C-RAF measured after 40 mins by scintillation counting
# Conditions: not given
row,Structure (SMILES),IC50 [µM]
1,CNC(=O)c1cc(Oc2ccc3nc(NC(=O)c4cc(C(F)(F)F)cc(C(F)(F)F)c4)sc3c2)ccn1,0.695

# System: CCRF-CEM
# Test: Antiproliferative activity against human CCRF-CEM cells assessed as cell growth at 10^-8 M after 48 hrs by sulforhodamine B assay
# Format: functional
# Conditions: read-out: Activity
row,Structure (SMILES),growth at 0.01 µM [%]
1,CNC(=O)c1cc(Oc2ccc3nc(NC(=O)c4cc(C(F)(F)F)cc(C(F)(F)F)c4)sc3c2)ccn1,99

# System: not listed separately
# Test: Antiproliferative activity against human HCC2998 cells assessed as cell growth at 10^-4 M after 48 hrs by sulforhodamine B assay
# Format: functional
# Conditions: HCC 2998, 48 h, read-out: Activity
row,Structure (SMILES),growth at 100 µM [%]
1,CNC(=O)c1cc(Oc2ccc3nc(NC(=O)c4cc(C(F)(F)F)cc(C(F)(F)F)c4)sc3c2)ccn1,-60

# System: A498
# Test: Antiproliferative activity against human A498 cells assessed as cell growth at 10^-8 M after 48 hrs by sulforhodamine B assay
# Format: functional
# Conditions: A498, 48 h, read-out: Activity
row,Structure (SMILES),growth at 0.01 µM [%]
1,CNC(=O)c1cc(Oc2ccc3nc(NC(=O)c4cc(C(F)(F)F)cc(C(F)(F)F)c4)sc3c2)ccn1,69
